Reference: publication PMC3903516 (PLoS ONE, 2014)
Positions count from the first letter of the chain named.

Tests used:
CYP2A6*1 (wild-type) [1] = biological target: T1, CYP2A6*1 (wild-type) (Homo sapiens, UniProt P11509); test: CYP2A6 inactivation assay (fluorescence-based coumarin 7-hydroxylase assay); format: biochemical; conditions: pH 7.4, probe coumarin (10 µM; 7-hydroxylation), 8-MOP 1.0 µM, 10 min pre-incubation with NADPH generating system vs no pre-incubation, read-out: increased percentage in inhibition with pre-incubation
T1 construct: made in house; host or cells: E. coli (membrane fractions; pCW-CYP2A6*1 co-expressed with pACYC-OxR)
T1 sequence (P11509 1-494): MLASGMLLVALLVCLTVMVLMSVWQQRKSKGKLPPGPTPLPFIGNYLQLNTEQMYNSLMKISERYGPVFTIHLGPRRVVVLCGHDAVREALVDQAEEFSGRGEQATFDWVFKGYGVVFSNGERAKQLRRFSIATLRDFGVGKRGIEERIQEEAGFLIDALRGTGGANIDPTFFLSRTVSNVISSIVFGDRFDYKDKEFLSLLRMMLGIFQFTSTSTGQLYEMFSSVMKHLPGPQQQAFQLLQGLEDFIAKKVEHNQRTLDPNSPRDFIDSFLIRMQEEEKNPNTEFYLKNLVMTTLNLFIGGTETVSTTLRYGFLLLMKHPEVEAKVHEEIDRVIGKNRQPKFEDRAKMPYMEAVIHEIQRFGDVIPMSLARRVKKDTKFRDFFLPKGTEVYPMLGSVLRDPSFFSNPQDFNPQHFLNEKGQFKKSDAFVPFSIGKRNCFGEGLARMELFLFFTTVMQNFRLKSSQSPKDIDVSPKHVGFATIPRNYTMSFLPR
Excerpt: (§1) A fully functional P450 monooxygenase system requires collaboration of the CYP of interest in concert with the essential coenzyme, NADPH-CYP oxidoreductase (OxR). Here, we co-expressed the individual CYP2A6 plasmid constructs – pCW-CYP2A6, pCW-CYP2A6*15, pCW-CYP2A6*16, pCW-CYP2A6*21 or pCW-CYP2A6*22, with pACYC-OxR plasmid which allowed for OxR co-expression that was important for CYP2A6 catalytic function. Preparation of membrane fragments expressing holoenzyme protein of respective CYP2A6 construct was in accordance to the established method described previously. Membrane fractions were stored at −80°C in a 1∶1 mixture of pH 7.6 TES (100 mM Tris/0.5 mM EDTA/500 mM sucrose buffer) and ice-cold distilled water before use.
(§2) Assessment of coumarin 7-hydroxylation is a signature marker for CYP2A6 metabolic assay. To evaluate the inhibitory potency of 8-MOP on the kinetic activity of CYP2A6 variants, we adopted a fluorescence-based coumarin 7-hydroxylase assay upon minor modifications of an established protocol, [13]. […] NADPH generating system (1 mM NADP, 10 mM G6P, 2IU G6PDH and 5 mM MgCl2) in 0.1 M phosphate buffer, pH 7.4 was added subsequently to the incubation mixture to initiate the reactions. […] Enzyme inhibition reactions were allowed in 25 minutes of incubation and later terminated by 500 mM Tris base. The experimental conditions were selected such that under conditions with varying activities of CYP2A6 proteins, no more than 20% of the substrate was converted to 7-hydroxycoumarin. The fluorescent metabolite was detected by Tecan Infinite™ 200 series microplate reader (Männerdorf, Switzerland) at excitation wavelength 365 nm and emission wavelength 450 nm and further estimated based on the standard curve of 7-hydroxycoumarin which was constructed in the range of 15.63–2000 pmol/well previously (data not shown). Current assay also included control for fluorescent interference which consisted of inhibitor (at a concentration equal to the inhibition incubations) and bacterial control membranes.

CYP2A6*15 [2] = biological target: T2, CYP2A6*15 (Homo sapiens, UniProt P11509, K194E); test: as above; format: biochemical; conditions: pH 7.4, probe coumarin (10 µM; 7-hydroxylation), 8-MOP 1.0 µM, 10 min pre-incubation with NADPH generating system vs no pre-incubation, read-out: increased percentage in inhibition with pre-incubation
T2 construct: made in house; host or cells: E. coli (membrane fractions; pCW-CYP2A6*15 co-expressed with pACYC-OxR)
T2 sequence (P11509 1-494 K194E): T1 sequence (P11509 1-494) with K194E
Excerpt: as §1, §2

CYP2A6*16 [3] = biological target: T3, CYP2A6*16 (Homo sapiens, UniProt P11509, R203S); test: as above; format: biochemical; conditions: pH 7.4, probe coumarin (10 µM; 7-hydroxylation), 8-MOP 1.0 µM, 10 min pre-incubation with NADPH generating system vs no pre-incubation, read-out: increased percentage in inhibition with pre-incubation
T3 construct: made in house; host or cells: E. coli (membrane fractions; pCW-CYP2A6*16 co-expressed with pACYC-OxR)
T3 sequence (P11509 1-494 R203S): T1 sequence (P11509 1-494) with R203S
Excerpt: as §1, §2

CYP2A6*21 [4] = biological target: T4, CYP2A6*21 (Homo sapiens, UniProt P11509, K476R); test: as above; format: biochemical; conditions: pH 7.4, probe coumarin (10 µM; 7-hydroxylation), 8-MOP 1.0 µM, 10 min pre-incubation with NADPH generating system vs no pre-incubation, read-out: increased percentage in inhibition with pre-incubation
T4 construct: made in house; host or cells: E. coli (membrane fractions; pCW-CYP2A6*21 co-expressed with pACYC-OxR)
T4 sequence (P11509 1-494 K476R): T1 sequence (P11509 1-494) with K476R
Excerpt: as §1, §2

CYP2A6*22 [5] = biological target: T5, CYP2A6*22 (Homo sapiens, UniProt P11509, D158E/L160I); test: as above; format: biochemical; conditions: pH 7.4, probe coumarin (10 µM; 7-hydroxylation), 8-MOP 1.0 µM, 10 min pre-incubation with NADPH generating system vs no pre-incubation, read-out: increased percentage in inhibition with pre-incubation
T5 construct: made in house; host or cells: E. coli (membrane fractions; pCW-CYP2A6*22 co-expressed with pACYC-OxR)
T5 sequence (P11509 1-494 D158E/L160I): T1 sequence (P11509 1-494) with D158E, L160I
Excerpt: as §1, §2

CYP2A6*1 (wild-type) [6] = biological target: T1, CYP2A6*1 (wild-type); set-up: method as in PMID 20139165; conditions: coumarin 7-hydroxylation, mean ± SD n=3; cited from earlier work
CYP2A6*15 [7] = biological target: T2, CYP2A6*15; set-up: method as in PMID 20139165; conditions: coumarin 7-hydroxylation, mean ± SD n=3; cited from earlier work
CYP2A6*16 [8] = biological target: T3, CYP2A6*16; set-up: method as in PMID 20139165; conditions: coumarin 7-hydroxylation, mean ± SD n=3; cited from earlier work
CYP2A6*21 [9] = biological target: T4, CYP2A6*21; set-up: method as in PMID 20139165; conditions: coumarin 7-hydroxylation, mean ± SD n=3; cited from earlier work
CYP2A6*22 [10] = biological target: T5, CYP2A6*22; set-up: method as in PMID 20139165; conditions: coumarin 7-hydroxylation, mean ± SD n=3; cited from earlier work
CYP2A6 K476E = system: CYP2A6 K476E; set-up: method as in PMID 16207711; conditions: towards coumarin; cited from earlier work

SMILES | inhibition at 35 min, 1 µM (CYP2A6*1 (wild-type) [1]) [%] | inhibition at 35 min, 1 µM (CYP2A6*15 [2]) [%] | inhibition at 35 min, 1 µM (CYP2A6*16 [3]) [%] | inhibition at 35 min, 1 µM (CYP2A6*21 [4]) [%] | inhibition at 35 min, 1 µM (CYP2A6*22 [5]) [%] | Km (CYP2A6*1 (wild-type) [6]) [µM] | Km (CYP2A6*15 [7]) [µM] | Km (CYP2A6*16 [8]) [µM] | Km (CYP2A6*21 [9]) [µM] | Km (CYP2A6*22 [10]) [µM] | catalytic efficiency, % of the wild type kcat/Km value (CYP2A6 K476E) [%]
COc1c2occc2cc2ccc(=O)oc12 [8-methoxypsoralen] | 35 | 32 | 31 | 24 | 23 |  |  |  |  |  | 
O=c1ccc2ccccc2o1 [coumarin] |  |  |  |  |  | 10.6 ± 1.58 | 22.1 ± 1.29 | 10.5 ± 1.45 | 16.4 ± 0.41 | 31.2 ± 2.22 | ~8
